Measured values published in patent US8039496B2, “Therapeutic compounds” (Allergan, Inc., priority 2007, dated 2011).
Like-named read-outs stand apart in the source and are kept apart here.

Columns and labels:
hEP3 = target: T1, hEP3 (Homo sapiens, UniProt P43115); assay: Other receptors: hEP3 / hEP3A; type: cell-based
T1 sequence (P43115 1-390): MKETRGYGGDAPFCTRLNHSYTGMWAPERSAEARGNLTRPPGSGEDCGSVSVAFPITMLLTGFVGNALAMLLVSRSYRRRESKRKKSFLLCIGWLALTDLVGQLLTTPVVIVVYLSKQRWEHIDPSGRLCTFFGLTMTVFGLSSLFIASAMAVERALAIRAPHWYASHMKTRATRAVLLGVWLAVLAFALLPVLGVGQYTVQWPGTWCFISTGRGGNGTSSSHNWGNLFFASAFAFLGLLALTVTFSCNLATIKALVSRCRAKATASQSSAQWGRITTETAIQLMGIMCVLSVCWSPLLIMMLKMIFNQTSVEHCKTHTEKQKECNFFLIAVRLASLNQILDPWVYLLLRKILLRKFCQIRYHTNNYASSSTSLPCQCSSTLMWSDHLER
Excerpt: (§1) U.S. patent application Ser. No. 11/553,143, filed on Oct. 26, 2006, describes the methods used to obtain the in vitro data in the table below.

hEP2 [1] = target: T2, hEP2 (Homo sapiens, UniProt P43116); assay: hEP2 cAMP functional assay; type: cell-based
Excerpt: as §1

hDP = target: T3, hDP (Homo sapiens, UniProt Q13258); assay: Other receptors: hDP; type: cell-based
T3 sequence (Q13258 1-359): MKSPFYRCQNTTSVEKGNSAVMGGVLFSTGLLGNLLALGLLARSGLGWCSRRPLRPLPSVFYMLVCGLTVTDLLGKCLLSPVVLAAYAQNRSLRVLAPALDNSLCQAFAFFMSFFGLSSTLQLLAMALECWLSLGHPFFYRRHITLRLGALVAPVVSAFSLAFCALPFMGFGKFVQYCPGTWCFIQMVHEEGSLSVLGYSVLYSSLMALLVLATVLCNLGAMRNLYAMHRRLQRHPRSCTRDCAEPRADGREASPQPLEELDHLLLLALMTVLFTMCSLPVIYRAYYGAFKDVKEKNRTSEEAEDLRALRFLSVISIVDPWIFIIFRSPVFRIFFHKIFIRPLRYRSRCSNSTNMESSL
Excerpt: as §1

hTP = target: T4, hTP (Homo sapiens, UniProt P21731); assay: Other receptors: hTP; type: cell-based; settings: the 2nd table
T4 sequence (P21731 1-343): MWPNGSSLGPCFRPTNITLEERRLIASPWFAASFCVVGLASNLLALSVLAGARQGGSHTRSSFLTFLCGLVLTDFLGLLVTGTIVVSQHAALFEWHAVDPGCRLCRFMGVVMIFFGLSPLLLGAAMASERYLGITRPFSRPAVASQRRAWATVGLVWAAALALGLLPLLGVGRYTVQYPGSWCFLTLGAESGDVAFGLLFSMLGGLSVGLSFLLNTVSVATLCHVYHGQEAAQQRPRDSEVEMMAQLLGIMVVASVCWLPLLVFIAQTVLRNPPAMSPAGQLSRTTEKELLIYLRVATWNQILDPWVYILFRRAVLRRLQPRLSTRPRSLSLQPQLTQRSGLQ
Excerpt: as §1

hEP2 [2] = target: T2, hEP2; assay: hEP2 flipr functional assay; type: cell-based
Excerpt: as §1

hEP2 [3] = target: T2, hEP2; assay: hEP2 binding (Ki)
Excerpt: as §1

hEP4 [4] = target: T5, hEP4 (Homo sapiens, UniProt P35408); assay: hEP4 binding (Ki)
Excerpt: as §1

hEP4 [5] = target: T5, hEP4; assay: hEP4 flipr functional assay; type: cell-based
Excerpt: as §1

hEP1 = target: T6, hEP1 (Homo sapiens, UniProt P34995); assay: Other receptors: hEP1; type: cell-based
T6 sequence (P34995 1-402): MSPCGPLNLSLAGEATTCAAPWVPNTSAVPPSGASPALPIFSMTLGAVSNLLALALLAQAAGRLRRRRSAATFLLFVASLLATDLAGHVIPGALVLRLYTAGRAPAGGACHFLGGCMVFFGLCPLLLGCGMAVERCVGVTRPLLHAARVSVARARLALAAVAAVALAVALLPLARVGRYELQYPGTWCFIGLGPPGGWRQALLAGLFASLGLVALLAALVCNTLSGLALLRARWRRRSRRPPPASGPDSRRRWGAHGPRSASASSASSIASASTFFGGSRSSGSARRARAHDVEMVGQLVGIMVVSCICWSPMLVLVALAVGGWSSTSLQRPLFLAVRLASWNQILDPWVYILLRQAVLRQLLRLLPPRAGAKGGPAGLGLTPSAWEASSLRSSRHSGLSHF
Excerpt: as §1

[6] = the 2nd table, read-out: Other Receptors hEP3
[7] = the 2nd table, read-out: hEP2 cAMP EC50
[8] = the 2nd table, read-out: hEP2 flipr EC50
[9] = the 2nd table, read-out: hEP2 Ki

T5 sequence (P35408 whole entry): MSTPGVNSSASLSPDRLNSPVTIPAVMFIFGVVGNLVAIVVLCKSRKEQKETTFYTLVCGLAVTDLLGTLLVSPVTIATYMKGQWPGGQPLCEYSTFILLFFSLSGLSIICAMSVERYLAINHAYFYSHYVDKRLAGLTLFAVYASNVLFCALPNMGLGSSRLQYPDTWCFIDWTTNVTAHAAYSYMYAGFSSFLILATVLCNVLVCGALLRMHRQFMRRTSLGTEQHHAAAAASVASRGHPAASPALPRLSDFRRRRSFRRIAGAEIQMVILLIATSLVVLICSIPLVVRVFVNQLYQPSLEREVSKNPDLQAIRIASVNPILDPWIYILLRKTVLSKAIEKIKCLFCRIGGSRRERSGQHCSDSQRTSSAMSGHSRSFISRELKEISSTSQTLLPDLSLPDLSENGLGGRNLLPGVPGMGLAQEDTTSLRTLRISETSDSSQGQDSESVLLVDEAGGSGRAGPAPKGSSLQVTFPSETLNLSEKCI
T2 sequence (P43116 whole entry): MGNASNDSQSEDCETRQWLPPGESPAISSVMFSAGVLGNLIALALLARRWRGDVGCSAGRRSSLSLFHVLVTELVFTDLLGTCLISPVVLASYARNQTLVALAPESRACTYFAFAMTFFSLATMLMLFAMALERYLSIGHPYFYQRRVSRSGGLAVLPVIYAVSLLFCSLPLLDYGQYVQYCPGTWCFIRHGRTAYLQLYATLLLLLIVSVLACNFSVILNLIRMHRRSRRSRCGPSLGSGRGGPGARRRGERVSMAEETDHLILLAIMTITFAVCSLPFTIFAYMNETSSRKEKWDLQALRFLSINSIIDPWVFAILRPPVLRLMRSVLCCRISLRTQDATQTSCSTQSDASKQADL

EC50 (hEP3; [6]) [nM] | EC50 (hEP2 [1]; [7]) [µM] | EC50 (hDP; the 2nd table, read-out: Other Receptors hDP) [nM] | EC50 (hTP) [µM] | EC50 (hEP2 [2]; [8]) [µM] | Ki (hEP2 [3]; [9]) [µM] | Ki (hEP4 [4]; the 2nd table, read-out: hEP4 Ki) [µM] | EC50 (hEP4 [5]; the 2nd table, read-out: hEP4 flipr EC50) [µM] | EC50 (hEP1; the 2nd table, read-out: Other Receptors hEP1) [nM] | EC50 (hEP3; the 3rd table, read-out: Other Receptors (ED50 in nM) hEP3A) [nM] | EC50 (hEP2 [1]; the 3rd table, read-out: EP2 data cAMP EC50) [µM] | EC50 (hDP; the 3rd table, read-out: Other Receptors (ED50 in nM) hDP) [nM] | EC50 (hEP2 [2]; the 3rd table, read-out: EP2 data flipr EC50) [µM] | Ki (hEP4 [4]; the 3rd table, read-out: EP4 data KI) [µM] | EC50 (hEP4 [5]; the 3rd table, read-out: EP4 data flipr EC50) [µM] | EC50 (hEP1; the 3rd table, read-out: Other Receptors (ED50 in nM) hEP1) [nM] | Ki (hEP2 [3]; the 3rd table, read-out: EP2 data Ki) [µM] | Structure (SMILES)
8830 | 0.007 | > 10000 | > 10 | 0.644 | 0.107 | – | – | – | – | – | – | – | – | – | – | – | O=C(O)CCC/C=C\C[C@@H]1[C@@H](COc2cc(Cl)cc(CCO)c2)[C@H](O)C[C@H]1Cl [(Z)-7-{(1R,2S,3R,5R)-5-Chloro-2-[3-chloro-5-(2-hydroxyethyl)-phenoxymethyl]-3-hydroxy-cyclopentyl}-hept-5-enoic acid]
7210 | 0.008 | – | > 10 | 3.41 | 0.039 | 1.45 | 4.82 | 5180 | – | – | – | – | – | – | – | – | COCc1cc(Cl)cc(OC[C@@H]2[C@@H](C/C=C\CCCC(=O)O)[C@H](Cl)C[C@H]2O)c1 [(Z)-7-[(1R,2S,3R,5R)-5-Chloro-2-(3-chloro-5-methoxymethyl-phenoxymethyl)-3-hydroxy-cyclopentyl]-hept-5-enoic acid]
– | – | – | – | – | – | – | – | – | 3570 | 0.0004 | 4440 | 0.447 | 0.214 | 6.74 | 31500 | 0.004 | CCc1cccc(OC[C@@H]2[C@@H](CCCc3ccc(C(=O)O)s3)[C@H](Cl)C[C@H]2O)c1 [5-(3-((1R,2S,3R,5R)-5-chloro-2-((3-ethylphenoxy)methyl)-3-hydroxycyclopentyl)propyl)thiophene-2-carboxylic acid]
